Structures are written as SMILES.

Test [1] deals with T1, Adenosine receptor A1 (Homo sapiens, UniProt P30542).
T1 sequence (P30542 whole entry): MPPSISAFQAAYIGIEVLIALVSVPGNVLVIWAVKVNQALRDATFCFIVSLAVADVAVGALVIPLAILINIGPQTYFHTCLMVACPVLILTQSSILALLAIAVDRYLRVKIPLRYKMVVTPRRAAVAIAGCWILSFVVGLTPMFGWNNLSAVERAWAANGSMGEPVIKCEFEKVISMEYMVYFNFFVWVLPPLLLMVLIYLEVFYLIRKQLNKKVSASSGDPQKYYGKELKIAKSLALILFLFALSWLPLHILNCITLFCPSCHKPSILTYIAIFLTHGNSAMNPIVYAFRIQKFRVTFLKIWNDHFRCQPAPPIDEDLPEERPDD
Briefly: Displacement of [3H]CCPA from human adenosine A1 receptor expressed in CHO cells. It counts as cell-based.

Test [2] concerns the target Adenosine receptor A2a (Homo sapiens, UniProt P29274). As to the kind of experiment: Displacement of [3H]NECA from human adenosine A2A receptor expressed in CHO cells. The test is classed as cell-based.
Test [3] concerns the target T2, Adenosine receptor A3 (Homo sapiens, UniProt P0DMS8).
T2 sequence (P0DMS8 whole entry): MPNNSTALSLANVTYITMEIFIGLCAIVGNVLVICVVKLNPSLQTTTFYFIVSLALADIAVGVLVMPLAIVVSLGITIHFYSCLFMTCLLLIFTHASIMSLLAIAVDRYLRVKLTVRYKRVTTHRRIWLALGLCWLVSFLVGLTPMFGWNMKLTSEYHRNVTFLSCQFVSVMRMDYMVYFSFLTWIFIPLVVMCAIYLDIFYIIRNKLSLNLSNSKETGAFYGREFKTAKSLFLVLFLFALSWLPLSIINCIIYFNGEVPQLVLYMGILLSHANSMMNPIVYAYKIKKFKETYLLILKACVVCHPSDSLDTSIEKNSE
Briefly: Displacement of [3H]HEMADO from human adenosine A3 receptor expressed in CHO cells. It counts as cell-based.

The target of test [4] is Adenosine receptors; A1 & A3 (Homo sapiens) (UniProt P30542+P0DMS8). As to the kind of experiment: Selectivity ratio of Ki for human adenosine A1 receptor to Ki for human adenosine A3 receptor.
The species entered for test [5] is Homo sapiens. Briefly: Selectivity ratio of Ki for human adenosine A2A receptor to Ki for human adenosine A3 receptor.

Adenosine receptor A2a, sequence (P29274 whole entry): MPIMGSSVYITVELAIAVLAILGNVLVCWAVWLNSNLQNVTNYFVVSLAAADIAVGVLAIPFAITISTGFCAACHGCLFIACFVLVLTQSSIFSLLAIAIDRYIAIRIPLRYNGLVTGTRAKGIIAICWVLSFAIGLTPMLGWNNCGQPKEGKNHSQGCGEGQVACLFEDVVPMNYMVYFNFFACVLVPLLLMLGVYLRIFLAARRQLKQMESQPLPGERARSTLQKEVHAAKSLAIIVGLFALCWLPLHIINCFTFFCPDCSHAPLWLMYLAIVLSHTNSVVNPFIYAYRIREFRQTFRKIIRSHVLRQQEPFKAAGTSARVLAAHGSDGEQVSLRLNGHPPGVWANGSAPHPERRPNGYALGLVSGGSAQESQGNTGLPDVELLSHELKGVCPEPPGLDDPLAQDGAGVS

On to `CCOC(=O)c1c(NC(=O)c2sc(Nc3ccccc3)nc2-c2ccc(C)cc2)sc2c1CCCC2`, for which the inhibition constant (Ki) (commonly the equilibrium dissociation constant of an inhibitor or competing ligand from its target) in test [1] amounted to 7.75 µM; in test [2], 28.4 µM; in test [3], 4.09 µM. For the same compound, the Selectivity ratio in test [4] is 1.9; in test [5] it was 6.9.
For `CCOC(=O)c1c(NC(=O)c2sc(NC(=O)OC)nc2N(C)C)sc2c1CCCC2` the same measures were > 100 µM, > 100 µM, > 30 µM, > 3.3 and > 3.3.
As to `CCOC(=O)c1c(NC(=O)c2sc(Nc3ccc(C)cc3)nc2C)sc(C(=O)OC)c1C`, the inhibition constant Ki in test [1], in test [2] and in test [3] was > 30 µM in each case. In addition, the Selectivity ratio in test [5] turned out to be 0.33.
For the compound `CCOC(=O)c1c(NC(=O)c2sc(Nc3ccc(OC)cc3)nc2N(C)C)sc(C(=O)OC)c1C`, the inhibitory constant (Ki) came to 14 µM in test [1], 9.66 µM in test [2] and 2.73 µM in test [3]. Further, the Selectivity ratio is 5.1 in test [4] and 3.5 in test [5].
As for `CN(C)c1nc(Nc2ccccc2)sc1C(=O)Nc1sc2c(c1C#N)CCCC2`, the inhibitory constant (Ki) is > 30 µM in test [1], > 30 µM in test [2] and 35.6 µM in test [3]. Moreover, the Selectivity ratio in test [4] and in test [5] was > 0.84 in each case.
For `CCOC(=O)c1c(NC(=O)c2sc(Nc3ccc(OC)cc3)nc2-c2ccc(C)cc2)sc2c1CCCC2`, the Ki in test [1] was > 10 µM; in test [2], > 10 µM; in test [3] it was 0.52 µM. Further, the Selectivity ratio in test [4] and in test [5] was > 19 each time.
As for `CCOC(=O)c1c(NC(=O)c2sc(Nc3ccc(C)cc3)nc2N(C)C)sc(C(=O)OC)c1C`, the values for the Ki in test [1], in test [2] and in test [3] were 19 µM, 26.6 µM and 3.91 µM, respectively. Moreover, the Selectivity ratio in test [4] is 4.9; in test [5], 6.8.
For `Cc1ccc(-c2nc(Nc3ccccc3)sc2C(=O)Nc2sc3c(c2C(N)=O)CCCC3)cc1` the same measures were 2.38 µM, 3.44 µM, 0.334 µM, 7.1 and 10.
Turning to `Cc1ccc(Nc2nc(N(C)C)c(C(=O)Nc3sc4c(c3C(N)=O)CCCC4)s2)cc1`, the Ki stood at 32.4 µM in test [1], 22.3 µM in test [2] and 7.13 µM in test [3]. For the same compound, the Selectivity ratio came out at 4.5 in test [4] and 3.1 in test [5].
Regarding `CCOC(=O)c1c(NC(=O)c2sc(Nc3ccc(C)cc3)nc2C)sc2c1CCCC2`, the Ki in test [1] was > 30 µM; in test [2], > 30 µM; in test [3], 8.22 µM. The Selectivity ratio in test [4] and in test [5] was > 3.7 in each case.
As to `CCOC(=O)c1c(NC(=O)c2sc(Nc3ccc(C)cc3)nc2N(C)C)sc2c1CCCC2`, the Ki in test [1] worked out at 23.5 µM; in test [2], 18 µM; in test [3], 4.71 µM. The Selectivity ratio worked out at 5 in test [4] and 3.8 in test [5].
For the compound `Cc1ccc(Nc2nc(-c3ccc(C)cc3)c(C(=O)Nc3sc4c(c3C#N)CCCC4)s2)cc1`, the inhibition constant (Ki) in test [1], in test [2] and in test [3] was > 10 µM each time.
As for `CCOC(=O)c1c(NC(=O)c2sc(Nc3ccccc3)nc2N(C)C)sc2c1CCCC2`, the figures for the inhibitory constant (Ki) in test [1], in test [2] and in test [3] were 40.8 µM, 6.45 µM and 4.12 µM, respectively. In addition, the results for the Selectivity ratio in test [4] and in test [5] were 9.9 and 1.6, respectively.
For `Cc1ccc(Nc2nc(C)c(C(=O)Nc3sc4c(c3C#N)CCCC4)s2)cc1`, in that order: > 30 µM, 5.67 µM, 3.87 µM, > 7.8 and 1.5.
For `CCOC(=O)c1c(NC(=O)c2sc(Nc3ccc(C)cc3)nc2-c2ccc(C)cc2)sc2c1CCCC2` the same measures were > 30 µM, > 30 µM, 2.16 µM, > 14 and > 14.
As for `COc1ccc(Nc2nc(-c3ccc(C)cc3)c(C(=O)Nc3sc4c(c3C#N)CCCC4)s2)cc1`, the Ki was > 30 µM in test [1], > 30 µM in test [2] and 9.56 µM in test [3]. Further, the Selectivity ratio in test [4] and in test [5] was > 3.1 throughout.
Consider `Cc1ccc(Nc2nc(-c3ccc(C)cc3)c(C(=O)Nc3sc4c(c3C(N)=O)CCCC4)s2)cc1`, for which the inhibition constant (Ki) in test [1] was > 30 µM; in test [2] it was > 10 µM; in test [3] it was 0.33 µM. The Selectivity ratio was > 90 in test [4] and > 30 in test [5].
As for `Cc1ccc(Nc2nc(N(C)C)c(C(=O)Nc3sc4c(c3C#N)CCCC4)s2)cc1`, the inhibitory constant (Ki) in test [1] was > 100 µM; in test [2], > 10 µM; in test [3], 34 µM. The Selectivity ratio is > 2.9 in test [4] and > 0.29 in test [5].

For the origin of these results see ChEMBL document CHEMBL3400099, “Novel thiazole-thiophene conjugates as adenosine receptor antagonists: synthesis, biological evaluation and docking studies” (Bioorg Med Chem Lett, 2015).
